Test [1] deals with T1, human liver microsomal 2,3-oxidosqualene-lanosterol cyclase (OSC) (Homo sapiens, UniProt P48449).
T1 construct: Liver microsomes from a healthy volunteer were prepared in sodium phosphate buffer (pH 7.4); from tissue; host or cells: human liver microsomes from a healthy volunteer
T1 sequence (P48449 1-732): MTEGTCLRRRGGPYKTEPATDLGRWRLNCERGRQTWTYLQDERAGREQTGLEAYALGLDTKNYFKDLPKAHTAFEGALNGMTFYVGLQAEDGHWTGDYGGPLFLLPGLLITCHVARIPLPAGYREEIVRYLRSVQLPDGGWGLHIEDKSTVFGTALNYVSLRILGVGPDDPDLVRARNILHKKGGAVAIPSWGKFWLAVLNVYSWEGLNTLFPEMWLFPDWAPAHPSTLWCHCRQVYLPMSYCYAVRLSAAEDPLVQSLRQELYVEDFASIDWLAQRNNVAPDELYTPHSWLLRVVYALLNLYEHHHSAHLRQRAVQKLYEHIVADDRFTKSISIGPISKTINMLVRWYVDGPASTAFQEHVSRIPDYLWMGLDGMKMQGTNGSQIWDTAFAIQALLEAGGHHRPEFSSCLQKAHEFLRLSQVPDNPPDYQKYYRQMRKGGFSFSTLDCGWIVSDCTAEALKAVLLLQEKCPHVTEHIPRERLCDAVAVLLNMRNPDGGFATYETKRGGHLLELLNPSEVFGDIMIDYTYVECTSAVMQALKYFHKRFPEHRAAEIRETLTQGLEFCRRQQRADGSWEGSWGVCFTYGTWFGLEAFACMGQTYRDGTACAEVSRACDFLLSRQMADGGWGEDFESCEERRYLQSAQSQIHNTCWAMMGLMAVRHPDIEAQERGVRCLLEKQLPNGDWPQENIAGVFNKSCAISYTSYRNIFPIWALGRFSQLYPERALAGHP
The experiment in a line: Inhibition of human liver microsomal 2,3-oxidosqualene-lanosterol cyclase (OSC). The following applies: human liver microsomes; for IC50: concentration reducing conversion of MOS into lanosterol to 50% of control; for inhibition at 0.1 µM: constant test substance concentration of 100 nM, 1 hour at 37° C., against controls. Format: biochemical. The procedure:
Inhibition of Human Liver Microsomal 2,3-Oxidosqualene-lanosterol Cyclase (OSC)
Liver microsomes from a healthy volunteer were prepared in sodium phosphate buffer (pH 7.4). The OSC activity was measured in the same buffer which also contained 1 mM EDTA and 1 mM dithiothreitol. The microsomes were diluted to 0.8 mg/ml protein in cold phosphate buffer. Dry [^14C]R,S-monooxidosqualene (MOS; 12.8 mCi/mmol) was diluted to 20 nCi/μl with ethanol and mixed with phosphate buffer-1% BSA (Bovine Serum Albumin). A stock solution of 1 mM test substance in DMSO was diluted to the desired concentration with phosphate buffer-1% BSA. 40 μl of microsomes were mixed with 20 μl of the solution of the test substance and the reaction was subsequently started with 20 μl of the [^14C]R,S-MOS solution. The final conditions were: 0.4 mg/ml of microsomal proteins and […] of [^14C]R,S-MOS in phosphate buffer, pH 7.4, containing 0.5% albumin, DMSO <0.1% and ethanol <2%, in a total volume of 80 μl.
After 1 hour at 37° C. the reaction was stopped by the addition of 0.6 ml of 10% KOH-methanol, 0.7 ml of water and 0.1 ml of hexane:ether (1:1, v/v) which contained 25 μg of non-radioactive MOS and 25 μg of lanosterol as the carrier. After shaking 1 ml of hexane:ether (1:1, v/v) was added to each test tube, these were again shaken and then centrifuged. The upper phase was transferred into a glass test tube, the lower phase was again extracted with hexane:ether and combined with the first extract. The entire extract was evaporated to dryness with nitrogen and the residue was suspended in 50 μl of hexane:ether and applied to a silica gel plate. Chromatographic separation was effected in hexane:ether (1:1, v/v) as the eluent. […] After drying radioactive MOS and lanosterol were observed on the silica gel plate. The ratio of MOS to lanosterol was determined from the radioactive bands in order to determine the OSC inhibition.
The test was carried out on the one hand with a constant test substance concentration of 100 nM and the percentage OSC inhibition against controls was calculated. In addition, the test was carried out with different test substance concentrations and subsequently the IC50 value was calculated, i.e. the concentration required to reduce the conversion of MOS into lanosterol to 50% of the control value.
(Liver microsomes are a subcellular fraction often used to study metabolism.)

The test system of another test is Cryptococcus neoformans. The experiment in a line: Antifungal activity in vitro, microdilution method. Format: cell-based. The following applies: growth inhibition, incubation at 27° C. for 48 hours, read-out: IC50 (mg/ml) for: C. neoformans after: 48 hours. The procedure: (§1) Antifungal Activity In Vitro The compounds were tested for antifungal activity against Candida albicans, Cryptococcus neoformans and Aspergillus fumigatus using a microdilution method on microtitre plates (96 wells per plate). Yeast supplemented with 1% glucose and 0.25% di-potassium phosphate was used for the three fungal strains. The fungal cells were inoculated at 3×10^4 CFU (Colony Forming Unit) in […] of medium per well. The medium contained increasing concentrations of test substance. After incubation at 27° C. for 24 or 48 hours the turbidity in each well was measured by a microtitre plate reader. The growth inhibition was calculated in comparison to a control (without test substance). The IC50 value given in the following Table is the concentration of test substance at which the growth is inhibited by 50%.

The next test relates to Aspergillus fumigatus. The experiment in a line: Antifungal activity in vitro, microdilution method. Format: cell-based. Particulars: growth inhibition, incubation at 27° C. for 48 hours, read-out: IC50 (mg/ml) for: A. fumigatus after: 48 hours. The procedure: as §1
The next test concerns Candida albicans. The test is described as follows: Antifungal activity in vitro, microdilution method. In kind it is cell-based. The following applies: growth inhibition. The procedure:
as §1
On the technique in general: Dilution methods test growth across graded concentrations, often in twofold steps.

Values after ≈ are worked out from the molar mass of the structure shown. Read-outs that look alike come from different tables or passages of the source. Bounds are passed on as bounds.

This note sets out measurements from patent US6441177B1 (Hoffmann-La Roche Inc., priority 1995, dated 2002).

What is called inhibition is the percentage by which the read-out fell short of the control. A lower inhibition goes with little suppression. In test [1], `C=CCN(C)C/C=C/COc1ccc(C(O)(C=C)c2ccc(Br)cc2)cc1` (racemic) [Example 8b, (E)-(RS)-1-[4-[4-(allyl-methyl-amino)-but-2-enyloxy]-phenyl]-1-(4-bromo-phenyl)-prop-2-en-1-ol] gave an IC50 of 23.7 nM and an inhibition at 0.1 µM of 78%.

For the compound `CN(C[C@@H]1C[C@H]1COc1ccc(C(=O)c2ccc(Br)cc2)cc1)C1CC1` (racemic) [Example 31, (1RS,2RS)-(4-bromo-phenyl)-[4-[2-[(cyclopropyl-methyl-amino)-methyl]-cyclopropylmethoxy]-phenyl]-methanone], in test [1], the IC50 came out at 22 nM and testing at 0.1 µM gave an inhibition of 85%.

As for `CN(C[C@@H]1C[C@H]1COc1ccc(C(=O)c2ccc(Br)cc2)cc1F)C1CC1` (racemic) [Example 32a, (1RS,2RS)-(4-bromo-phenyl)-[4-[2-[(cyclopropyl-methyl-amino)-methyl]-cyclopropylmethoxy]-3-fluoro-phenyl]-methanone], in test [1], the IC50 turned out to be 3.6 nM and the inhibition at 0.1 µM was 85%.

For `C=CCN(C)CCCCCCOc1ccc(C(C)(O)c2ccc(Br)cc2)c(F)c1` (racemic) [Example 38, (RS)-1-[4-[6-(allyl-methyl-amino)-hexyloxy]-2-fluoro-phenyl]-1-(4-bromo-phenyl)-ethanol], in test [1], the IC50 amounted to 21 nM and the inhibition at 0.1 µM was determined as 82%.

In test [1], `C=CCN(C)C/C=C/COc1ccc(C(C)(O)CCC=C(C)C)cc1` (racemic) [Example 39a, (E)-(RS)-2-[4-[4-(allyl-methyl-amino)-but-2-enyloxy]-phenyl]-6-methyl-hept-5-en-2-ol] displayed an IC50 of 12.3 nM and an inhibition at 0.1 µM of 87%.

On to `C=CCN(C)Cc1ccc(-c2ccc(C(F)c3ccc(Br)cc3)cc2)cc1` (racemic) [Example 48, (RS)-allyl-[4′-[(4-bromo-phenyl)-fluoro-methyl]-biphenyl-4-ylmethyl]-methyl-amine], for which the IC50 with Cryptococcus neoformans was 0.00047 mg/mL (≈ 1.11 µM); with Aspergillus fumigatus it was 0.018 mg/mL (≈ 42.4 µM); in the test on Candida albicans (incubation at 27° C. for 24 hrs., read-out: IC50 (mg/ml) for: C. albicans after: 24 hrs.), < 0.00032 mg/mL; in the test on Candida albicans (incubation at 27° C. for 48 hrs., read-out: IC50 (mg/ml) for: C. albicans after: 48 hrs.), < 0.00032 mg/mL.

In test [1], `C=CCN(C)C/C=C/COc1cc(F)c(C(=O)c2ccc(Br)cc2)cc1F` [Example 1, (E)-[4-[4-(allyl-methyl-amino)-but-2-enyloxy]-2,5-difluoro-phenyl]-(4-bromo-phenyl)-methanone] showed an IC50 of 2.4 nM and an inhibition at 0.1 µM of 90%.

Compound `O=C(c1ccc(Br)cc1)c1ccc(OC/C=C/CN2CCC(O)CC2)cc1` [Example 2l, (E)-(4-bromo-phenyl)-[4-[4-(4-hydroxy-piperidin-1-yl)-but-2-enyloxy]-phenyl]-methanone] displayed an inhibition at 0.1 µM in test [1] of 81%.

The compound `CN(CCCCCCOc1ccc(C(=O)c2ccc(Br)cc2)c(F)c1)C1CC1` [Example 2p, (4-bromo-phenyl)-[4-[6-(cyclopropyl-methyl-amino)-hexyloxy]-2-fluoro-phenyl]-methanone] displayed an inhibition at 0.1 µM in test [1] of 66%.

Take `C=CCN(C)CCCCCCOc1ccc(C(=O)c2ccc(Br)cc2)c(SC)c1` [Example 3, [4-[6-(allyl-methyl-amino)-hexyloxy]-2-methylsulphanyl-phenyl]-(4-bromo-phenyl)-methanone]: in test [1], the IC50 was 4.9 nM and the inhibition at 0.1 µM turned out to be 92%.

In test [1], `C=CCN(C)C/C=C/COc1ccc(C(=C)c2ccc(Br)cc2)cc1` [Example 8f, (E)-allyl-[4-[4-[1-(4-bromo-phenyl)-vinyl]-phenoxy]-but-2-enyl]-methyl-amine] displayed an IC50 of 13.5 nM and an inhibition at 0.1 µM of 90%.

As for `CN(CCCCCCOc1ccccc1C(=O)c1ccc(Br)cc1)C1CC1` [Example 13a, [6-[6-(cyclopropyl-methyl-amino)-hexyloxy]-phenyl]-(4-bromo-phenyl)-methanone], in test [1], the inhibition at 0.1 µM stood at 82%.

Turning to `CN(C/C=C/COc1ccc(C(=O)c2ccc(C#N)cc2)cc1F)C1CC1` [Example 13b, (E)-4-[4-[4-(cyclopropyl-methyl-amino)-but-2-enyloxy]-3-fluoro-benzoyl]-benzonitrile], in test [1], the IC50 was 7.9 nM and at 0.1 µM the inhibition was 93.5%.

As to `CN(CCCCCCOc1ccc(C(=O)c2ccc(Br)cc2)cc1)CC1CC1` [Example 15, (4-bromo-phenyl)-[4-[6-(cyclopropylmethyl-methyl-amino)-hexyloxy]-phenyl]-methanone], in test [1], the IC50 was found to be 32 nM and at 0.1 µM the inhibition was 83%.

On to `C=CCN(C)CCCCCCNc1ccc(C(=O)c2ccc(Br)cc2)cc1F` [Example 30, [4-[6-(allyl-methyl-amino)-hexylamino]-3-fluoro-phenyl]-(4-bromo-phenyl)-methanone], for which, in test [1], the IC50 came to 3.2 nM and the inhibition at 0.1 µM came out at 93%.

In test [1], `C=CCN(C)CCCCCCOc1ccc(C(=O)c2ccc(Br)cc2)c(NC)c1` [Example 33, [4-[6-(allyl-methyl-amino)-hexyloxy]-2-methylamino-phenyl]-(4-bromo-phenyl)-methanone] had an IC50 of 2.3 nM and an inhibition at 0.1 µM of 98%.

In test [1], `C=CCN(C)CCCCCCOc1ccc(C(=O)c2ccc(Br)cc2)c(N(C)C)c1` [Example 34a, [4-[6-(allyl-methyl-amino)-hexyloxy]-2-dimethylamino-phenyl]-(4-bromo-phenyl)-methanone] had an IC50 of 7.1 nM and an inhibition at 0.1 µM of 98%.

Compound `C=CCN(C)CCCCCCOc1ccc(C(=O)c2ccc(Br)cc2)c(O)c1` [Example 35, [4-[6-(allyl-methyl-amino)-hexyloxy]-2-hydroxy-phenyl]-(4-bromo-phenyl)-methanone] showed an inhibition at 0.1 µM in test [1] of 97%.

As to `C=CCN(C)CCCCCCOC1CCN(S(=O)(=O)c2ccc(Br)cc2)CC1` [Example 49, allyl-[6-[1-(4-bromo-phenylsulphonyl)-piperidin-4-yloxy]-hexyl]-methyl-amine], in test [1], the IC50 came to 5.5 nM and the inhibition at 0.1 µM amounted to 94%.

In the case of `C=CCN(C)C/C=C/COc1ccc(C(=NOC)c2ccc(Br)cc2)cc1` [Example 51, (E)-and/or (Z)-[4-[(E)-4-(ally-methyl-amino)-but-2-enyloxy]-phenyl]-(4-bromo-phenyl)-methanone-0-methyl-oxime], in test [1], the IC50 amounted to 12.8 nM and the inhibition at 0.1 µM was found to be 87.5%.
